Experimental data taken from patent publication US9333210B2, “Medicine composition containing vitamin D and metformin” (GUANGDONG TAIHE MEDICINE SCIENCE & TECHNOLOGY CO., LTD, priority 2011, dated 2016).
Counter-ions that a name gives are not always drawn.

Legend:
[1] = test system: Wistar rats with dimethyl hydrazine-induced colorectal cancer; test: Aberrant crypt foci (ACF) count in dimethyl hydrazine-induced colorectal cancer rats (Example 1); format: in vivo; settings: for ACF AC = 1 / ACF AC = 2 / ACF AC = 3 / ACF AC ≧ 4 / The total number of ACF: DMH rats, week 18; for inhibitory effect on ACF, trend with dose: low, medium, high dose groups, end of week 18
Excerpt: (§1) Wistar rats with dimethyl hydrazine-induced colorectal cancer were used as the model to study the chemoprevention by the combined administration of vitamin D3 and metformin hydrochloride for colorectal cancer and the effect on colorectal cancer.
(§2) Experimental animals were randomly divided into 11 groups (each group having 10), including blank control group, model control group, low, medium and high dose groups of vitamin D3, low, medium and high dose groups of metformin, and three groups of different doses of vitamin D3 in combination with metformin. Except for the blank control group, other groups were subcutaneously injected with dimethyl hydrazine once a week respectively for 18 weeks, to induce colorectal cancer model. Dimethylhydrazine was dissolved in sodium chloride injection, and into the solution, 5% NaOH solution was added to adjust pH to 6.5-7.0, thereby obtaining a 20 mg/ml solution. The resulting solution was filtered through 0.22 μm membrane, and prepared extemporaneously.
(§3) Vitamin D3 was prepared into 10-100 U/ml solution by using soybean oil, and intragastrically administrated, once a day. Metformin was prepare into 10-100 mg/ml solution, and administrated intragastrically, once a day. The above drugs were administrated from day 0.
(§4) All the animals were sacrificed at the end of 18th weeks after administration. Body weights were recorded once a week during the experiment, and the administrated dose was calculated based on the body weight. The animals that died during the experiment were dissected and observed.
(§5) 3.2.2 The large intestine was separated immediately after the animals were sacrificed, the contents of the intestine were washed away with saline, and colorectal tumors were visually observed to calculate the number of tumors. The entire colon was paved between two layers of filter paper, placed in 10% neutral formalin and fixed for 24-48 h. The fixed large intestine tissue was put into 0.2% methylene blue and stained for 10 s. The aberrant crypt foci (ACF) of the whole large intestine were immediately observed under an optical microscope, and the number of the aberrant crypt in foci was counted respectively as one, two, three and four as well as greater than four.
(§6) 3.2.3 The data were processed by using Excel 2003 software for statistical analysis, and the obtained data were represented by mean±standard deviation (mean±SD). P<0.05 means that there is statistically significant difference between two groups.

[2] = test system: Wistar rats with dimethyl hydrazine-induced colorectal cancer; test: Tumorigenesis and inhibition rate, drugs administrated from day 15 (Example 9); format: in vivo; settings: drugs from day 15
Experimental: Example 1 was repeated, except that: The experimental animals were randomly divided into 11 groups, with 8 in each group. Except for the blank control group, other groups were subcutaneously injected of dimethylhydrazine once a week for 18 weeks to induce colorectal cancer model. Vitamin D3 was prepared into 10-100 U/ml solution by using soybean oil, and intragastrically administrated, once a day. Metformin was prepare into 10-100 mg/ml solution, and administrated orally, once a day. The above drugs were administrated from day 15 (after two weeks). During the experiments, tumorigenesis and inhibition rate were observed.

[3] = test system: Wistar rats with dimethyl hydrazine-induced colorectal cancer; test: Tumorigenesis and tumor inhibition rate in dimethyl hydrazine-induced colorectal cancer rats (Example 1); format: in vivo; settings: for Mean number of tumors / Number of Animals with tumor: DMH rats; for Mean number of tumors / Number of Animals with tumor / Inhibition rate(%): week 18; for Number of Animals with tumor: of 10 animals; for Inhibition rate(%): tumor number vs model control
Excerpt: as §1, §2, §3, §4, §5, §6

[4] = General situation and body weight of the rats (Example 1); settings: DMH rats; for Weight gain: after 18 weeks; for Body weight Week 0: baseline
Excerpt: as §2, §3, §4
3.2.1 The animals were observed daily to record the general conditions, such as mental activity, food-taking, feces, hair, and the like.

[5] = high dose group, metformin hydrochloride 360 mg/kg intragastrically once a day
[6] = low dose group, metformin hydrochloride 40 mg/kg intragastrically once a day
[7] = medium dose group, metformin hydrochloride 120 mg/kg intragastrically once a day
[8] = low, medium, high dose groups, end of week 18
[9] = high dose group, Vitamin D 300 U/kg intragastrically once a day
[10] = low dose group, Vitamin D 30 U/kg intragastrically once a day
[11] = medium dose group, Vitamin D 100 U/kg intragastrically once a day
[12] = medium dose group and high dose group, P<0.01

CN(C)C(=N)N=C(N)N [metformin, metformin hydrochloride]
ACF AC = 1 [1, 5]: 61.5 ± 8.1 | ACF AC = 2 [1, 5]: 13.8 ± 3.4 | ACF AC = 3 [1, 5]: 4.0 ± 1.2 | ACF AC ≧ 4 [1, 5]: 9.7 ± 3.2 | The total number of ACF [1, 5]: 89.0 ± 12.7 | ACF AC = 1 [1, 6]: 70.4 ± 10.6 | ACF AC = 2 [1, 6]: 16.7 ± 3.6 | ACF AC = 3 [1, 6]: 6.7 ± 1.7 | ACF AC ≧ 4 [1, 6]: 16.5 ± 2.1 | The total number of ACF [1, 6]: 110.3 ± 13.0 | inhibitory effect on ACF, trend with dose [1]: same trend | ACF AC = 1 [1, 7]: 57.0 ± 10.7 | ACF AC = 2 [1, 7]: 16.6 ± 1.8 | ACF AC = 3 [1, 7]: 5.4 ± 1.6 | ACF AC ≧ 4 [1, 7]: 14.8 ± 3.0 | The total number of ACF [1, 7]: 93.8 ± 11.7 | number of tumors, trend with dose ([2]; end of week 18): reduced with the increase of dose | Mean number of tumors [3, 5]: 1.6 ± 0.5 | Mean number of tumors [3, 6]: 2.0 ± 0.7 | number of tumors, trend with dose [3, 8]: reduced with the increase of dose | Mean number of tumors [3, 7]: 1.8 ± 0.4 | Number of Animals with tumor [3, 5]: 10 | Number of Animals with tumor [3, 6]: 10 | Number of Animals with tumor [3, 7]: 10 | Inhibition rate(%) [3, 5]: 42.9% | Inhibition rate(%) [3, 6]: 28.6% | Inhibition rate(%) [3, 7]: 35.7%

C=C1CC[C@H](O)C/C1=C/C=C1\CCC[C@]2(C)[C@@H]([C@H](C)CCCC(C)C)CC[C@@H]12 [vitamin D3, Vitamin D3]
ACF AC = 1 [1, 9]: 61.8 ± 11.1 | ACF AC = 2 [1, 9]: 14.9 ± 5.9 | ACF AC = 3 [1, 9]: 5.0 ± 1.6 | ACF AC ≧ 4 [1, 9]: 9.8 ± 2.2 | The total number of ACF [1, 9]: 91.5 ± 7.2 | ACF AC = 1 [1, 10]: 80.5 ± 7.6 | ACF AC = 2 [1, 10]: 16.1 ± 5.7 | ACF AC = 3 [1, 10]: 9.0 ± 2.3 | ACF AC ≧ 4 [1, 10]: 20.0 ± 4.1 | The total number of ACF [1, 10]: 125.6 ± 12.1 | inhibitory effect on ACF, trend with dose [1]: increased with the increase of dose | ACF AC = 1 [1, 11]: 67.9 ± 11.8 | ACF AC = 2 [1, 11]: 15.9 ± 5.7 | ACF AC = 3 [1, 11]: 4.8 ± 3.1 | ACF AC ≧ 4 [1, 11]: 16.1 ± 2.9 | The total number of ACF [1, 11]: 104.7 ± 14.3 | inhibition rate for tumor, trend with dose ([2]; end of week 18): increased with the increased of dose | tumor number compared with the model control group [2, 12]: significantly reduced | Mean number of tumors [3, 9]: 1.4 ± 0.8 | Mean number of tumors [3, 10]: 2.3 ± 0.5 | inhibition rate for tumor, trend with dose [3, 8]: increased with the increase of dose | number of tumors compared with the model control group [3, 12]: significantly reduced | Mean number of tumors [3, 11]: 1.7 ± 0.7 | Number of Animals with tumor [3, 9]: 8 | Number of Animals with tumor [3, 10]: 10 | Number of Animals with tumor [3, 11]: 10 | Inhibition rate(%) [3, 9]: 50.0% | Inhibition rate(%) [3, 10]: 17.9% | Inhibition rate(%) [3, 11]: 39.3% | Weight gain [4, 9]: 225.7% | Weight gain [4, 10]: 227.7% | Weight gain [4, 11]: 235.7% | Body weight Week 18 [4, 9]: 328.8 ± 23.6 | Body weight Week 0 [4, 9]: 101.5 ± 5.2 | Body weight Week 18 [4, 10]: 377.5 ± 27.5 | Body weight Week 0 [4, 10]: 100.3 ± 4.1 | Body weight Week 18 [4, 11]: 294.3 ± 22.1 | Body weight Week 0 [4, 11]: 102.9 ± 5.8
